The results in this text go back to PubChem BioAssay (NCI).

In general, TGI refers to the concentration giving total growth inhibition. Low values mean greater sensitivity of the cells, high ones lower sensitivity of the cells. The term GI50 denotes the concentration at which growth is held to half of that of the control.

What all share (test): DTP human tumour cell line panel, 48 h
The test system of test [1] is NCI/ADR-RES ovarian.
The subject of test [2] is MALME-3M melanoma.
Test [3] deals with TK-10 renal.
The test system of test [4] is SNB-75 CNS.
Test [5] concerns OVCAR-5 ovarian.
Test [6] relates to SK-MEL-2 melanoma.
Test [7] relates to NCI-H522 lung.
Test [8] relates to HT29 colon.
Test [9] concerns M14 melanoma.
The subject of test [10] is OVCAR-8 ovarian.

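Results reflect a 48-hour exposure of cells in 96-well plates to compound at five concentrations. Abbreviation: GI50, concentration required for 50% inhibition of growth. TGI denotes the concentration required for complete inhibition of growth.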 Where only a bound is given, the exact number is not on record here.

On to `O=C(O)C1CCCN1Cc1c[nH]c2ccccc12` (centres undefined), for which the TGI in test [1], in test [2], in test [3], in test [4], in [5] and in [6] was more than 100 µM in each case. The TGI in [7], in test [8], in test [9] and in [10] was more than 100 µM throughout.
For the compound `O=P(Oc1ccccc1)(Oc1ccccc1)C(O)c1ccccc1` (centres undefined), the GI50 in test [1] was more than 100 µM; in [2], 4.65 µM; in [3], more than 100 µM; in [4] it was 34.4 µM; in [5] it was more than 100 µM; in [6], 81.4 µM. Also, the GI50 in test [7] was 25.4 µM; in test [8] it was 78.1 µM; in test [9], more than 100 µM; in test [10], more than 100 µM. Further, the TGI in [1], in test [2], in [3], in test [4], in test [5] and in test [6] was more than 100 µM each time. For the same compound, the TGI in test [7], in test [8], in test [9] and in [10] was more than 100 µM throughout.
For the compound `COc1cc2c3c(n(CCCO)c(=O)c2cc1OC)-c1cc2c(cc1C3=O)OCO2`, the GI50 in test [1] is 3.95 µM; in test [2], 21.6 µM; in test [3], 34.7 µM; in test [4], 16.1 µM; in test [5] it was more than 79.2 µM; in test [6] it was 31.9 µM. The GI50 was more than 40.8 µM in test [7], more than 46.5 µM in test [8], 3.68 µM in [9] and 13.7 µM in test [10]. Also, the TGI in test [1] was more than 53.4 µM; in test [2], more than 100 µM; in [3], more than 100 µM; in test [4], more than 79.1 µM; in test [5], more than 100 µM; in test [6], more than 100 µM. Besides, the TGI was more than 100 µM in test [7], more than 100 µM in [8], 32.8 µM in [9] and more than 100 µM in [10].
Consider `COc1cccc(-c2nc(-c3ccc(NS(=O)(=O)c4ccccc4)cc3)[nH]c2-c2ccnc(Br)c2)c1`, for which the GI50 in test [1] was 3.44 µM; in test [2], 1.76 µM; in [3], 3.72 µM; in [4] it was 1.92 µM; in [5], 4.17 µM; in test [6] it was 2.5 µM. The GI50 in [7] is 2.93 µM; in test [8] it was 3.02 µM; in [9], 2.03 µM; in test [10], 3.33 µM. Besides, the TGI was more than 100 µM in test [1]; 5.22 µM in [2]; more than 100 µM in test [3]; more than 100 µM in test [4]; more than 100 µM in [5]; 6.62 µM in test [6]. Also, the concentration for total growth inhibition (TGI) was more than 100 µM in test [7], more than 100 µM in test [8], 6.09 µM in [9] and more than 100 µM in [10].
Turning to `CCOC(=O)Oc1c(OC)cc(C(=O)c2ccc(OC)c(OC(=O)CCl)c2OC)cc1OC`, the GI50 is 0.497 µM in test [1]; 0.688 µM in test [2]; more than 100 µM in [3]; 0.528 µM in test [4]; 5.88 µM in [5]; 0.668 µM in [6]. The GI50 in [7] was 0.264 µM; in test [8], 3.15 µM; in [9] it was 0.491 µM; in test [10] it was 2.65 µM. For the same compound, the TGI in test [1] was 3.98 µM; in [2], 79.9 µM; in test [3] it was more than 100 µM; in test [4] it was more than 100 µM; in [5] it was more than 100 µM; in [6], 60.2 µM. The TGI in [7] is 1.31 µM; in [8], 18.8 µM; in [9], more than 100 µM; in test [10], more than 100 µM.
With `COc1ccc(/C=C(\C#N)n2nnc3cc(Cl)ccc32)cc1`, the GI50 was 0.299 µM in test [1]; 1.22 µM in test [2]; 1.65 µM in test [3]; 0.193 µM in [4]; 1.4 µM in [5]; 0.483 µM in test [6]. The concentration for 50% growth inhibition (GI50) in test [7] was 0.18 µM; in test [8], 0.334 µM; in [9], 0.373 µM; in [10], 0.751 µM. The total growth inhibition concentration (TGI) was 4.58 µM in test [1]; 11.3 µM in [2]; 11.5 µM in [3]; 0.983 µM in test [4]; 6.44 µM in test [5]; more than 47.6 µM in test [6]. Also, the TGI in test [7] was 0.704 µM; in [8] it was more than 100 µM; in test [9], 6.63 µM; in test [10] it was more than 100 µM.
In the case of `O=C(O)CSCC(=O)c1ccccc1`, the concentration for total growth inhibition (TGI) in [1], in [2], in test [3], in test [4], in test [5] and in test [6] was more than 100 µM each time. Further, the TGI in [7], in test [8], in test [9] and in test [10] was more than 100 µM in each case.
In the case of `COc1ccc2c(CN3CCC(CO)CC3)cc3cc4c(cc3c2c1)OCO4`, the concentration for 50% growth inhibition (GI50) in [1] was 0.255 µM; in test [2] it was 0.199 µM; in [3], 0.407 µM; in [4] it was 0.474 µM; in test [5] it was 0.344 µM; in test [6], 0.193 µM. The GI50 in test [7] was 0.135 µM; in test [8], 0.134 µM; in [9] it was 0.296 µM; in [10] it was 0.0844 µM. The TGI was determined as 10.4 µM in test [1]; 0.799 µM in test [2]; 8.65 µM in [3]; 2 µM in test [4]; 10.6 µM in test [5]; 0.636 µM in test [6]. For the same compound, the total growth inhibition concentration (TGI) was 0.363 µM in test [7], 2.6 µM in [8], 1.26 µM in [9] and 2.19 µM in test [10].
Regarding `COc1ccc(/C=C/C(=O)/C=C(/C=C/c2ccc(OC)c(OC)c2)OB(F)F)cc1OC`, the GI50 is 0.529 µM in [1]; 0.51 µM in test [2]; 1.25 µM in test [3]; 1.02 µM in test [4]; 2.26 µM in test [5]; 1.81 µM in test [6]. For the same compound, the GI50 is 0.291 µM in test [7], 1.03 µM in [8], 0.519 µM in test [9] and 0.417 µM in [10]. Further, the TGI in test [1] is more than 100 µM; in [2], 4.25 µM; in test [3], 9.48 µM; in test [4], 8.06 µM; in [5], 5.86 µM; in test [6] it was 4.39 µM. Besides, the TGI in [7] was 1.45 µM; in [8] it was 4.95 µM; in test [9], 3.55 µM; in test [10] it was more than 100 µM.
As for `COc1cccc2c(Nc3ccc(C(=O)NCCNCCO)cc3)cc(-c3ccccc3)nc12`, the GI50 in test [1] was more than 100 µM; in test [2], 21 µM; in test [3] it was 30.2 µM; in test [5] it was 76.7 µM; in test [6], 19.5 µM; in test [7], 20.3 µM. Moreover, the figures for the GI50 in [8], in [9] and in test [10] were 36 µM, 26.9 µM and 42.2 µM, respectively. In addition, the total growth inhibition concentration (TGI) was more than 100 µM in test [1]; 37.9 µM in [2]; more than 100 µM in test [3]; 34.9 µM in test [4]; more than 100 µM in [5]; 40.8 µM in test [6]. Also, the TGI in [7] is 53.8 µM; in test [8], more than 100 µM; in test [9] it was 74.7 µM; in test [10] it was more than 100 µM.
For `COc1ccc(C(=O)c2cc(OC)c(OC)c(OC)c2)cc1/C=C/C(=O)c1ccc(O)cc1`, the GI50 was 2.68 µM in [1]; 9.69 µM in test [2]; 11.8 µM in [3]; 1.62 µM in test [4]; 11.2 µM in [5]; 5.01 µM in test [6]. Also, the GI50 is 2.69 µM in test [7], 5.35 µM in test [8], 1.98 µM in test [9] and 4.48 µM in test [10]. Further, the TGI in test [1] was 8.09 µM; in [2], 25.1 µM; in test [3], 28.5 µM; in test [4], 4.77 µM; in test [5], 25.1 µM; in test [6], 26.5 µM. For the same compound, the TGI in test [7] is 15.8 µM; in [8] it was more than 100 µM; in [9] it was 5.86 µM; in test [10] it was more than 100 µM.
As for `OCc1ccc(N(Cc2ccc(F)cc2)C2CCC2)cc1Cl`, the GI50 in test [1] is 12.7 µM; in test [2], 16.2 µM; in test [3] it was 0.0551 µM; in test [4], 12.2 µM; in test [5] it was 0.106 µM; in test [6], 4.89 µM. Moreover, the GI50 was 13 µM in test [7], 3.89 µM in [8], 15.8 µM in test [9] and 13.4 µM in [10]. Further, the TGI is 27.8 µM in test [1]; 31.3 µM in [2]; 0.278 µM in test [3]; 24.8 µM in [4]; 0.495 µM in test [5]; 20.1 µM in [6]. Also, the total growth inhibition concentration (TGI) in [7] was 28.6 µM; in test [8], 15.3 µM; in test [9] it was 32 µM; in test [10] it was 29.1 µM.
Take `O=C(O)C(Cc1ccccc1-c1ccccc1)C(=O)O`: the TGI in test [1], in test [2], in test [3], in [4], in test [5] and in test [6] was more than 100 µM each time. The TGI in test [7], in test [8], in [9] and in test [10] was more than 100 µM in each case.
For the compound `O=C(Nc1cccc(NS(=O)(=O)c2ccc(F)cc2)c1)c1ccc(-c2ccccc2)cc1`, the GI50 was 2.75 µM in [1]; 2.81 µM in [2]; 3.77 µM in test [3]; 6.07 µM in [4]; 7.84 µM in test [5]; 2.42 µM in [6]. Also, the GI50 in test [7] was 2.5 µM; in [8], 4.85 µM; in test [9], 3.63 µM; in test [10], 2.88 µM. Besides, the concentration for total growth inhibition (TGI) in test [1] came to 11.3 µM; in test [2], 10.2 µM; in test [3] it was 36.5 µM; in test [4], 44 µM; in test [5], 75.8 µM; in test [6] it was 7.88 µM. Also, the TGI in test [7] was found to be 13 µM; in test [8], 18.6 µM; in test [9] it was 17.1 µM; in [10], 17.5 µM.
On to `Cc1ccc2c(/C=C/C(=O)c3cc(CN4CCOCC4)c(O)c4nc(C)ccc34)cc(CN3CCOCC3)c(O)c2n1`, for which the GI50 in test [1] is 0.162 µM; in test [2], 2 µM; in [3] it was 1.13 µM; in test [4], 0.938 µM; in test [5], 1.55 µM; in test [6] it was 0.623 µM. Besides, the GI50 was 0.332 µM in [7], 1.64 µM in test [8], 0.564 µM in test [9] and 0.588 µM in [10]. Also, the TGI was more than 100 µM in test [1]; 10.6 µM in [2]; 3.77 µM in test [3]; 16.6 µM in test [4]; 13.1 µM in test [5]; 13.1 µM in test [6]. Also, the TGI in test [7] was 2 µM; in [8], 3.39 µM; in test [9], 11.7 µM; in [10], more than 100 µM.
